Source: publication PMC5010932 (Molecular cancer therapeutics, 2016)

Biological target: NAMPT (Homo sapiens, UniProt P43490)
Assay: cell-free coupled-enzyme colorimetric assay with recombinant NAMPT
Type: biochemical

Chain of NAMPT (P43490 whole entry): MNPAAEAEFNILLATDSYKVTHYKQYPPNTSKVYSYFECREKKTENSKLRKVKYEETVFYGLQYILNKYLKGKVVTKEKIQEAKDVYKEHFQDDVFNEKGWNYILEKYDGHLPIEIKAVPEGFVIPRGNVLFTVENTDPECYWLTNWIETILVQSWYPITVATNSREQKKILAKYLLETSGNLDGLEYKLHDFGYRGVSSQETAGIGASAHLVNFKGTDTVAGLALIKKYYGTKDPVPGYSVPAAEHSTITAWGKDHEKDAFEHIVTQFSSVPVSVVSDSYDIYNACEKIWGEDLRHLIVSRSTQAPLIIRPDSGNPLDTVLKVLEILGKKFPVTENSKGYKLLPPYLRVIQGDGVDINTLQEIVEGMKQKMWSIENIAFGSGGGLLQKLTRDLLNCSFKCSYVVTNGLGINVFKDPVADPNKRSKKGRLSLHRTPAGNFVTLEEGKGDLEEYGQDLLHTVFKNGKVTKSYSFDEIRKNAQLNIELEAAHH

Nc1ccc(/C=C/C(=O)NCc2cc3cc(-c4ccc(C(=O)N5CCC(F)(F)CC5)cc4)cc(-c4ccc(F)cc4)c3o2)cn1 [KPT-9274]
IC50: ~120 nM
